Assays:
[1] = system: U87MG cells, stage IV astrocytoma; experiment: U87MG cell survival (presto blue), 48 hours post treatment; assay type: cell-based
Description: FIG. 1. U87MG cells, stage IV astrocytoma obtained from ATCC, were tested against APAP and its derivatives at various concentrations with 0.2% DMSO as a vehicle. Cells were seeded at 3500 cells and allowed 48 hours to stabilize before treatment. Drugs were administered and data for cell survival, using presto blue, were analyzed at 48 hours post treatment.
U87MG cells, stage IV astrocytoma obtained from ATCC, were tested against APAP and its derivatives at various concentration with 0.2% DMSO as a vehicle (FIG. 1). Cells were seeded at 3500 cells and allowed 48 hours to stabilize before treatment. Drugs were administered and data for cell survival, using presto blue, were analyzed at 48 hours post treatment.

[2] = system: differentiated neuronal cell line HCN-2; experiment: Toxicity on differentiated neuronal cell line HCN-2; assay type: cell-based, human; details: HCN-2 differentiated 12 days; for reduction (non-significant): highest soluble concentration, not a significant reduction
Description: FIG. 3. The compounds were tested on a differentiated neuronal cell line (9) HCN-2, obtained from ATCC. Cells were seeded at 5,000 cells per well using a low passage, second passage of cells to ensure cell stability. Cells were then subjected to induced differentiation, at 72 hours, with a differentiating concoction composed of 25 ng/mL NGF-beta-human, 0.05 mM dibutyryl cAMP and 0.5 mM IBMX in 10% DMEM, all differentiating factors were obtained from Sigma Aldrich (9). Cells were treated with differentiating factor for 12 days to ensure that cells differentiated into neuronal cells. On the twelfth day, cells were treated with and without drugs at the highest soluble concentration to determine the activity of the compounds on neuronal cells.
The compounds were also tested on a differentiated neuronal cell line, HCN-2, obtained from ATCC (FIG. 3).

[3] = system: T-cell lymphoma cells line (Jurkat cells); experiment: Jurkat T-cell lymphoma cell survival (presto blue), 48 hours post treatment; assay type: cell-based
Description: FIG. 2. The compounds were tested against T-cell lymphoma cells line (Jurkat cells) obtained from ATCC and were tested against APAP and its derivatives at various concentrations with 0.2% DMSO as a vehicle. Free flowing cells were seeded at 3500 cells and allowed 48 hours to stabilize before treatment. Drugs were administered to both seeded wells and wells that that were designated blank, without cells. This additional step was added in order to account for the effects of the drugs on the reagent used for analysis. Data for cell survival, using presto blue, was analyzed at 48 hours post treatment.
The effects of the drugs on lymphoma cells were tested on Jurkat cells, as described above and in FIG. 2.

[4] = system: malignant astrocytes; details: cell culture method, Casper et al. (6); cited from earlier work

## CCCCCCC(=O)Nc1ccc(O)cc1 [PL7, N-(4-hydroxyphenyl)heptanamide]
[1]; 0.5 mM
  activity (cell survival) in words: greatest activity
[2]; highest concentration 0.5 mM
  toxicity on neuronal cells: toxicity
other
  melting point: 109 °C

## CCCCCCCC(=O)Nc1ccc(O)cc1 [PL8, N-(4-hydroxyphenyl)octanamide]
[1]; 0.25 mM
  activity (cell survival) in words: greatest activity
[2]; highest concentration 0.5 mM
  toxicity on neuronal cells: toxicity
other
  melting point: 120 °C

## CCCCCCCCC(=O)Nc1ccc(O)cc1 [PL9, N-(4-hydroxyphenyl)nonanamide]
[2]; highest concentration 0.25 mM
  toxicity on neuronal cells: toxicity
other
  melting point: 119 °C

## CCCCCC(=O)Nc1ccc(O)cc1 [PL6, N-(4-hydroxyphenyl)hexanamide]
other
  melting point: 110 °C

## CCCCCCCCCCCC(=O)Nc1ccc(O)cc1 [PL12, N-(4-hydroxyphenyl)dodecanamide]
other
  melting point: 128 °C

## CCCCCCCCCC(=O)Nc1ccc(O)cc1 [PL10, N-(4-hydroxyphenyl)decanamide]
[3]; 0.125 mM
  activity when compared to APAP: greatest activity
[2]
  reduction (non-significant): 35.6%
other
  melting point: 124 °C

## CC(=O)Nc1ccc(O)cc1 [APAP, N-(4-Hydroxyphenyl)acetamide, reference compound]
[1]; 2 mM
  reduction in cell growth as compared to control 0.2% DMSO: 36%
[3]; 2 mM
  reduction in cell growth as compared to control 0.2% DMSO: 16%
[4]
  ability to reduce the growth of malignant astrocytes: only mild

## O=C(Nc1ccc(O)cc1)c1ccccc1 [PL5B, N-(4-hydroxyphenyl)benzamide]
other
  melting point: 217 to 218 °C

## O=C(Nc1ccc(O)cc1)c1ccc2ccccc2c1 [PL11]
[1]; 0.25 mM
  reduction in cell growth: 87.5%
[2]
  reduction (non-significant): 35.6%

## CC(C)C(=O)Nc1ccc(O)cc1 [PL4, N-(4-hydroxyphenyl)-2-methylpropanamide]
other
  melting point: 160 to 162 °C

## CCCCCCCCCCCCCCCC(=O)Nc1ccc(O)cc1 [PL16, N-(4-Hydroxyphenyl)hexadecanamide]
other
  melting point: 131 °C

Source: patent US20210332001A1, “SYNTHESIS AND ANTI-TUMOR ACTIVITIES OF ACYL-PARA-AMINOPHENOL DERIVATIVES” (Montefiore Medical Center, priority 2018, published 2021)
